In patent publication US6562809B1, “3-bicycloindole compounds” (NPS Allelix Corp., priority 1998, dated 2003):

Assays:
5-HT1D receptor [1] = molecular target: T1, 5-HT1D receptor (Homo sapiens, UniProt P28221); test: Binding affinity, 3H-serotonin displacement from membranes of cells expressing 5-HT1D; conditions: 100 nM of test compound; 3H-serotonin 1 nM; 60 minute incubation at 22° C.; read-out: percent inhibition of binding of the radioligand at the 5-HT1D receptor
T1 construct: expressed in transfected cells
T1 sequence (P28221 whole entry): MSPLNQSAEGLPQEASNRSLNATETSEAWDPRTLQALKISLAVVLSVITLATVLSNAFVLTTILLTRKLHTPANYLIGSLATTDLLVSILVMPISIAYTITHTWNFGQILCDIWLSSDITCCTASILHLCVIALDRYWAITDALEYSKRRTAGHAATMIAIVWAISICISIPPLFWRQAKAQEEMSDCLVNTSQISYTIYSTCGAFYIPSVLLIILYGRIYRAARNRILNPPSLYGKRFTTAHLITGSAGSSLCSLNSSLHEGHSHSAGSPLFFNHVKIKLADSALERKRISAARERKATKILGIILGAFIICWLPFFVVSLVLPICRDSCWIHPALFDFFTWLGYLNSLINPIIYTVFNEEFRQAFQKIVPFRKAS
Protocol: (§1) Selected compounds of the previous examples, as well as reference compounds were evaluated for binding affinity using cell types receptive specifically to 5-HT1D and 5-HT1B ligands. The assay protocol generally entailed the incubation of membranes prepared from cells expressing the 5-HT1D or 5-HT1B subtype of 5-HT receptors with ^3H-serotonin (1 nM for 5-HT1D and 2.5 nM for 5-HT1B). Specific concentrations of the test compound were incubated with the radioligand and the membrane homogenates prepared from the recombinant cells. After a 60 minute incubation at 22° C., the incubation was terminated by vacuum filtration. The filters were washed with buffer and counted for radioactivity using liquid scintillation spectroscopy. The affinity of the test compound for the 5-HT1D receptor is expressed as the amount (in percent) of binding of the radioligand that is inhibited in the presence of 100 nM of test compound. A greater percent inhibition indicates greater affinity for the 5-HT1D receptor.

5-HT1B receptor = molecular target: T2, 5-HT1B receptor (Homo sapiens, UniProt P28222); test: Binding affinity, 3H-serotonin displacement from membranes of cells expressing 5-HT1B; conditions: 3H-serotonin 2.5 nM; 60 minute incubation at 22° C.; 100 nM test compound given only for 5-HT1D; read-out: percent inhibition at the 5-HT1B receptor
T2 construct: expressed in transfected cells
T2 sequence (P28222 whole entry): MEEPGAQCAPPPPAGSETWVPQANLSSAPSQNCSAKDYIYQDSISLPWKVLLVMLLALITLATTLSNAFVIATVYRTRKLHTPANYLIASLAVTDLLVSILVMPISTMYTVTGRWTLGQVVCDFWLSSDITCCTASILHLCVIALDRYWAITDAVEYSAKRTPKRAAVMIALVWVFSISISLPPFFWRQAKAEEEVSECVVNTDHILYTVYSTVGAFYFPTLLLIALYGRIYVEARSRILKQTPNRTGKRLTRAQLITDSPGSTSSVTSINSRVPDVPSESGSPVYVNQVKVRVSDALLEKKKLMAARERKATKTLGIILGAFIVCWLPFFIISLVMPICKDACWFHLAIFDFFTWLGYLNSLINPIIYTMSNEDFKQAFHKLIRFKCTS
Protocol: as §1

5-HT1D receptor [2] = molecular target: T1, 5-HT1D receptor; test: Functional assay, inhibition of forskolin-stimulated adenyl cyclase (cAMP) in CHO Pro 5 cells; assay type: cell-based; conditions: CHO cells stably expressing the 5-HT1D receptor; concentrations of 100 nM and 10 μM
Protocol: The 5HT1D and 5HT1B receptor subtypes respond to serotonin and other agonists by reducing adenyl cyclase mediated production of cyclic AMP. Particular test compounds were assayed for their ability to inhibit adenyl cyclase activity using the procedure described below. Forskolin was used to elevate the basal adenyl cyclase activity.
Compounds acting as antagonists at the 5HT1D and 5HT1B receptor subtypes will antagonize the agonist effect of serotonin and thus, will block the serotonin-induced inhibition of forskolin-stimulated adenyl cyclase activity. […]
The culture media of each well was removed, and the wells were washed once with serum free media. […] Basal adenyl cyclase activity was determined from wells with only SFM+IBMX media added.
The cells were then incubated at 37° C. for 30 minutes in a CO2 incubator. […] The pellets were discarded and the supernatants were stored at 4° C. until assayed for cAMP concentration. cAMP content for each extract was determined in duplicate by EIA (enzyme-immunoassay) using the Amersham Biotrak cAMP EIA kit (Amersham RPN 225).
Total inhibition (Io) of forskolin-stimulated adenyl cyclase activity by serotonin was determined as the difference in concentration of cAMP in the forskolin-treated cells (Cf) and serotonin-forskolin treated cells (Cd). […]

Row | Structure (SMILES) | inhibition at 0.1 µM (5-HT1D receptor [1]) | inhibition at 0.1 µM (5-HT1B receptor) | forskolin stimulated production of cAMP (agonist activity) (5-HT1D receptor [2])
1 | C1=C(c2c[nH]c3ccc(OC4CCCCC4)cc23)CC2CCCN2C1 [Example 3f, 5-Cyclohexyloxy-3-[(8a-R,S)-1,2,3,5,8,8a-hexahydro-7-indolizinyl]-1H-indole] | > 75% |  | 
2 | Brc1ccc2[nH]cc(C3=CCN4CCCC4C3)c2c1 [Example 3e, 5-Bromo-3-[(8a-R,S)-1,2,3,5,8,8a-hexahydro-7-indolizinyl]-1H-indole] | > 75% |  | 
3 | c1csc(-c2ccc3[nH]cc(C4CCN5CCCC5C4)c3c2)c1 [Example 14c, 3-[(7-R,S)(8a-R,S)-Octahydro-7-indolizinyl]-5-(2-thienyl)-1H-indole] | > 75% | < 50% | decrease
4 | CC(C)c1ccc2[nH]cc(C3CCN4CCCC4C3)c2c1 (single isomer, unassigned) [Example 9c, 5-Isopropyl-3-[(7R or 7S)(8a-R,S)-octahydro-7-indolizinyl]-1H-indole] | > 75% | < 50% | 
5 | C1=C(c2ccc3[nH]cc(C4=CCN5CCCC5C4)c3c2)CCSC1 [Example 8e, 5-(5,6-Dihydro-2H-thiopyran-4-yl)-3-[(8a-R,S)-1,2,3,5,8,8a-hexahydro-7-indolizinyl]-1H-indole] | > 75% | < 50% | 
6 | OC1(c2ccc3[nH]cc(C4=CCN5CCCC5C4)c3c2)CCOCC1 [Example 7, 4-{[3-(8a-R,S)-1,2,3,5,8,8a-Hexahydro-7-indolizinyl]-1H-indol-5-yl}tetrahydro-2H-pyran-4-ol] | > 75% | < 50% | 
7 | COc1ccc2[nH]cc(C3=CCN4CCCC4C3)c2c1 [Example 3b, 5-Methoxy-3-[(8a-R,S)-1,2,3,5,8,8a-hexahydro-7-indolizinyl]-1H-indole] | > 75% | < 50% | 
8 | CC1=C(c2c[nH]c3ccc(C(C)C)cc23)CC2CCCN2C1 [Example 6, 5-Isopropyl-3-[(8a,R,S)-6-methyl-1,2,3,5,8,8a-hexahydro-7-indolizinyl]-1H-indole] | > 75% | < 50% | 
9 | C1=C(c2c[nH]c3ccc(-c4cccs4)cc23)CC2CCCN2C1 [Example 3g, 5-(2-Thienyl)-3-[(8a-R,S)-1,2,3,5,8,8a-hexahydro-7-indolizinyl]-1H-indole] | > 75% |  | 
10 | C1=C(c2ccc3[nH]cc(C4=CCN5CCCC5C4)c3c2)CCCC1 [Example 8c, 5-(Cyclohexen-1-yl)-3-[(8a-R,S)-1,2,3,5,8,8a-hexahydro-7-indolizinyl]-1H-indole] | > 75% | < 50% | 
11 | C1=C(c2ccc3[nH]cc(C4=CCN5CCCC5C4)c3c2)CCOC1 [Example 8a, 5-(5,6-Dihydro-2H-pyran-4-yl)-3-[(8a-R,S)-1,2,3,5,8,8a-hexahydro-7-indolizinyl]-1H-indole] | > 75% |  | 
12 | C1=C(c2ccc3[nH]cc(C4=CC5CCCN5CC4)c3c2)CCSC1 [Example 8f, 5-(5,6-Dihydro-2H-thiopyran-4-yl)-3-[(8a-R,S)-1,2,3,5,6,8a-hexahydro-7-indolizinyl]-1H-indole] | > 75% |  | 
13 | C1=C(c2ccc3[nH]cc(C4=CC5CCCN5CC4)c3c2)CCCC1 [Example 8d, 5-(Cyclohexen-1-yl)-3-[(8a-R,S)-1,2,3,5,6,8a-hexahydro-7-indolizinyl]-1H-indole] | > 75% |  | 
14 | c1cc2[nH]cc(C3CCN4CCCC4C3)c2cc1C1CCOCC1 [Example 9g, 5-(Tetrahydropyran-4-yl)-[(7-R,S)(8a-R,S)-octahydro-7-indolizinyl]-1H-indole] | > 75% |  | 
15 | OC1(c2ccc3[nH]cc(C4=CCN5CCCC5C4)c3c2)CCCCC1 [Example 3h, 1-{[3-(8a-R,S)-1,2,3,5,8,8a-Hexahydro-7-indolizinyl]-1H-indol-5-yl}cyclohexanol] | > 75% | < 50% | 
16 | CC(C)c1ccc2[nH]cc(C3=CCN4CCCC4C3)c2c1 [Example 3d, 5-Isopropyl-3-[(8a-R,S)-1,2,3,5,8,8a-hexahydro-7-indolizinyl]-1H-indole] | > 75% | < 50% | decrease
17 | Cc1ccc2[nH]cc(C3=CCN4CCCC4C3)c2c1 [Example 3c, 5-Methyl-3-[(8a-R,S)-1,2,3,5,8,8a-hexahydro-7-indolizinyl]-1H-indole] | > 75% | < 50% | 
18 | C1=C(c2ccc3[nH]cc(C4=CC5CCCN5CC4)c3c2)CCOC1 [Example 8b, 5-(5,6-Dihydro-2H-pyran-4-yl)-3-[(8a-R,S)-1,2,3,5,6,8a-hexahydro-7-indolizinyl]-1H-indole] | > 75% |  | 
